Reference: paper PMC4303146, “Investigation of cyanine dyes for in vivo optical imaging of altered mitochondrial membrane potential in tumors” (Cancer Medicine, 2014)

Columns and labels:
[1] = system: HeLa cell xenograft; experiment: In vivo blocking study with protein-binding inhibitor warfarin; parameters: species or system mice
Protocol: (§1) Animal experiments were conducted in accordance with institutional guidelines and were approved by the Kyoto University Animal Care Committee. Female nude mice (BALB/c nu/nu 4-weeks old), supplied by Japan SLC, Inc. (Shizuoka, Japan), were housed under a 12 h light/12 h dark cycle and were given free access to food (D10001) and water. HeLa cells (2 × 10^6 cells in 100 μL of PBS) were subcutaneously inoculated into the right hind legs of mice. Fourteen days after implantation, mice were used for the imaging study.
An in vivo blocking study using a protein-binding inhibitor was conducted as reported previously. Briefly, IC7-1-Bu (10 nmol, 100 μL) and warfarin (5.5 μmol, 100 μL) were simultaneously administered to mice via the tail vein, and the mice were imaged using the same method as described above.

[2] = target: BSA (Bos taurus, UniProt P02769); experiment: Association constants of IC7-1 derivatives to albumin (fluorimetric titration); format: binding, bovine; details: dye 1 µM, BSA 0-1.0 µM, 30 min; read-out: Ka, association constant of dye-albumin complex (converted)
Protocol: Binding studies of IC7-1 derivatives to albumin were conducted as reported previously (Beckford G et al. The solvatochromic effects of side chain substitution on the binding interaction of novel tricarbocyanine dyes with human serum albumin. Talanta 2012;92: 45-52). Briefly, IC7-1 derivatives (1 µM final concentration) were incubated with BSA (0, 0.4, 0.6, 0.8, and 1.0 µM) for 30 min to equilibrate. The fluorescence intensity was measured following the excitation at 823 nm and the emission from 840 to 900 nm. The interaction between dye D and albumin A can be expressed by Eq. 1:
The association constant for the dye-albumin complex formation can be expressed by Eq. 2:
Then, the association constant Ka of the dye-albumin complex was calculated from the data for the fluorimetric titration of the dye with albumin using Eq. 3:
1/ΔF = 1/k[D] + (1/(k[D]Ka))·(1/[A]) (3)
where k is a constant depending on the instrumentation and quantum efficiency of the process.
Therefore, a plot of the reciprocal of ΔF versus the reciprocal of albumin concentration gives a straight line. The association constant was calculated by dividing the intercept by the slope of the line.

[3] = system: HeLa cells; experiment: Cellular uptake study with uncoupler CCCP; format: cell-based, human; details: dye 1 μmol/L, 60 min, CCCP 0-25 μmol/L
Protocol: A cellular uptake study was conducted as reported previously. Briefly, the buffer solution (pH 7.4) for the cellular uptake study was composed of NaCl ([…]), KCl (5.4 mmol/L), CaCl2 (1.2 mmol/L), MgSO4 (0.8 mmol/L), NaH2PO4 (0.8 mmol/L), dextrose (5.6 mmol/L), and 4-(2-hydroxyethyl)-1-piperazineethanesulfonic acid) (5 mmol/L). HeLa cells (1 × 10^6 cells/mL buffer solution) were incubated with carbonyl […] m-chlorophenylhydrazone (CCCP; 0, 0.1, 0.25, 0.5, 0.75, 1, 2.5, 5, 10, and 25 μmol/L) for 5 min at 37°C in 1.5 mL microtubes, followed by the addition of the IC7-1 derivative (1 μmol/L final concentration). After a 60-min incubation with the IC7-1 derivative, the cells were washed twice and resuspended with buffer solution. The fluorescence intensity was measured following the excitation at 823 nm and the emission from 840 to 900 nm, and the normalized intensity (%) was calculated as a percentage of fluorescence intensity obtained with CCCP untreated (0 μmol/L) cells.
The buffer solution (pH 7.4) for the cellular uptake study was composed of NaCl (145 mM), KCl (5.4 mM), CaCl2 (1.2 mM), MgSO4 (0.8 mM), NaH2PO4 (0.8 mM), dextrose (5.6 mM), and HEPES (5 mM). The HeLa cells (1 x 10^6 cells / ml buffer solution) were incubated with an uncoupler (CCCP; 0, 0.1, 0.25, 0.5, 0.75, 1, 2.5, 5, 10, and 25 µM) for 5 min at 37 °C in 1.5 mL microtubes, followed by the addition of IR-780 or IC7-1-Bu (1 µM final concentration) After a 60 min incubation with the dyes, the cells were washed twice and resuspended with buffer solution. Fluorescence intensity was measured following the excitation at 763 nm and the emission from 780 to 880 nm for IR-780, and the excitation at 823 nm and the emission from 840 to 900 nm for IC7-1-Bu. The normalized intensity (%) was calculated as a percentage of fluorescence intensity obtained with CCCP untreated (0 µM) cells.

[4] = system: HeLa cell xenograft; experiment: In vivo blocking study with uncoupler CCCP; parameters: species or system mice; details: intratumoral CCCP 0.25 mg/kg, imaged 1 and 3 h
Protocol: as §1
In the in vivo blocking study using an uncoupler, IC7-1-Bu (10 nmol, 100 μL) was administered to tumor-bearing mice via the tail vein immediately after intratumoral injection of CCCP (2.5 mL/kg, 0.25 mg/kg). Mice were imaged 1 and 3 h after administration of the imaging agent using the same method as described above.

[5] = target: T1, albumin-binding site I (warfarin-binding site) (Bos taurus, UniProt P02769); experiment: Protein-binding assay with competitive inhibitors in 5% FBS; format: in vitro ADME, bovine
T1 construct: incubated for 30 min in PBS (pH 7.4) containing 5% DMSO and 5% FBS; from tissue; host or cells: fetal bovine serum (5% in PBS)
Protocol: A protein-binding assay was conducted as reported previously. Briefly, warfarin, ibuprofen, digoxin, and quinidine were used as competitive inhibitors of albumin-binding sites I, II, III, and […], respectively. The inhibitors (0 and 189 μmol/L) were incubated for 30 min in PBS (pH 7.4) containing 5% DMSO and 5% FBS at room temperature. Immediately after the addition of the IC7-1 derivative (1 μmol/L final concentration), the fluorescence intensity was measured following the excitation at 823 nm and the emission from 840 to 900 nm. The normalized intensity (%) was calculated as a percentage of fluorescence intensity obtained from an inhibitor untreated sample.

[6] = system: HeLa cells; experiment: Cellular localization study (fluorescence microscopy with NAO mitochondria marker); format: cell-based, human; details: 1 μmol/L, 60 min, NAO 100 nmol/L
Protocol: HeLa cells (3 × 10^5 cells) were cultured in a poly-L-lysine coated glass bottom dish for 24 h at 37°C before use. Cells were washed twice with phosphate-buffered saline (PBS) and then incubated with the IC7-1 derivative dissolved in dimethyl sulfoxide (DMSO) (1 μmol/L final concentration) in DMEM supplemented with 5% FBS and 1% penicillin and streptomycin for 60 min. To determine the dye localization, mitochondria were labeled with NAO (100 nmol/L final concentration) for 20 min before completion of the incubation with IC7-1 derivative. Next, the cells were washed twice each with DMEM and PBS. Cells were viewed with a fluorescence microscope under a 100× oil-immersion objective lens. MetaMorph® software (Molecular Devices, LLC, Sunnyvale, CA) was used for imaging analysis.

[7] = system: HeLa cell xenograft; experiment: In vivo imaging study in HeLa cell xenograft mice
Protocol: Animal experiments were conducted in accordance with institutional guidelines and were approved by the Kyoto University Animal Care Committee. […] HeLa cells (2 × 10^6 cells in 100 μL of PBS) were subcutaneously inoculated into the right hind legs of mice. Fourteen days after implantation, mice were used for the imaging study.
Clairvivo® OPT measurement and display software ver. 2.6.0.0. (SHIMADZU Co.) was used for imaging analysis.
Exposure time was 5s for the scan at 3 h, and 3s for the other scans. Clairvivo® OPT measurement and display software ver. 2.6.0.0. (SHIMADZU Co., Kyoto, Japan) was used for imaging analysis.

[8] = Photophysical properties (fluorescence spectroscopy, quantum yield); format: physicochemical
Protocol: IC7-1 derivatives were dissolved in chloroform or 5% FBS to give a concentration of 1 μmol/L for fluorescence spectroscopy analysis. Excitation spectra were measured following the emission at 850 nm, and emission spectra were measured following excitation at 823 nm. Quantum yields were determined using a Fluorolog-3 spectrofluorometer equipped with an integrating sphere.

[9] = parameters: method as in PMID 21469142; details: cited from earlier work

T1 sequence (P02769 25-607): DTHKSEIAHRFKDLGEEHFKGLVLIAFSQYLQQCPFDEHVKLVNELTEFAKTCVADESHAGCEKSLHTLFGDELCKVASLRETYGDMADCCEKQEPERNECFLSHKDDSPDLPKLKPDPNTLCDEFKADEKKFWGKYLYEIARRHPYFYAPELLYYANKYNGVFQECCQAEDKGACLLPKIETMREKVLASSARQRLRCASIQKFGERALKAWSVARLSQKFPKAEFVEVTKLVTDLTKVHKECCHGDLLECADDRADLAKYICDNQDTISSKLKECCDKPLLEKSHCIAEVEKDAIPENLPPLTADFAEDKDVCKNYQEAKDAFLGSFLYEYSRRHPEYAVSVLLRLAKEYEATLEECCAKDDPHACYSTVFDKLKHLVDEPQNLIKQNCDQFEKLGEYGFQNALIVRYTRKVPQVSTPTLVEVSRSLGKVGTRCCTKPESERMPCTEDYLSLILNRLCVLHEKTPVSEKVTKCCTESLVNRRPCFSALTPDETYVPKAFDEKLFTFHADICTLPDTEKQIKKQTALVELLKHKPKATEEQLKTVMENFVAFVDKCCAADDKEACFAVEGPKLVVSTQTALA
BSA, sequence (P02769 25-607): as above

In the case of CCCCN1/C(=C/C=C2\CCCC(/C=C/C3=[N+](CCCC)c4ccc5ccccc5c4C3(C)C)=C2Cl)C(C)(C)c2c1ccc1ccccc21 [IC7-1-Bu, 3-Butyl-2-(2-{3-[2-(3-butyl-1,1-dimethyl-1,3-dihydro-benz[e]indol-2-ylidene)-ethylidene]-2-chloro-cyclohex-1-enyl}-vinyl)-1,1-dimethyl-1H-benz[e]indolium], the “Fluorescence intensity after co-administration of warfarin” value ([1]; IC7-1-Bu 10 nmol + warfarin 5.5 μmol i.v., 24-72 h) is reported as “diminished throughout the body”, the “Tumor to neck fluorescence ratio” value ([1]; warfarin (+), after 1 day) is reported as 2.36 ± 0.09 and the “Tumor to neck fluorescence ratio” value ([1]; warfarin (+), after 2 day) is reported as 2.49 ± 0.10. The “Tumor to neck fluorescence ratio” value ([1]; warfarin (+), after 3 day) was 2.46 ± 0.09, the “Tumor to neck fluorescence ratio” value ([1]; warfarin (−), after 1 day) was 1.94 ± 0.11 and the “Tumor to neck fluorescence ratio” value ([1]; warfarin (−), after 2 day) was 2.02 ± 0.15. For the same compound, the “Tumor to neck fluorescence ratio” value ([1]; warfarin (−), after 3 day) was 2.07 ± 0.48, the Kd [2] was 476 nM and the “Normalized cellular fluorescence intensity under CCCP treatment” value [3] was “reduced cellular fluorescence from treatment with a low CCCP concentration”. The “Fluorescence intensity at the tumor after CCCP pretreatment” value [4] was “significantly decreased by CCCP pretreatment”, the “Absorbance peak and fluorescence in 5% FBS versus 0% FBS solution” value ([5]; 5% FBS vs 0% FBS) was “significantly higher in 5% FBS solution than in 0% FBS solution” and the “Normalized fluorescence intensity with warfarin (albumin site I inhibitor)” value ([5]; 5% FBS, inhibitor 189 μmol/L, dye 1 μmol/L) was “specifically bound to albumin”. For the same compound, the Absorbance peak ([5]; FBS solution) was 836 nm, the “Subcellular localization of NIR fluorescence” value [6] was “colocalized fluorescence with NAO” and the “Retention of tumor fluorescence after i.v. administration” value ([7]; 10 nmol i.v.) was 72 h. For the same compound, the “Tumor fluorescence intensity group from ROI analysis” value ([7]; 10 nmol i.v.) was “high intensity group”, the “Fluorescence intensity at the tumor region” value ([7]; 10 nmol i.v., 24, 48 and 72 h) was “strong fluorescence intensity at the tumor region up to 72 h” and the “Tumor depiction in fluorescence images” value ([7]; 10 nmol i.v., 24, 48 and 72 h) was “Tumors were clearly depicted”. For the same compound, the “Φ, quantum yield” value ([8]; 5% FBS) was 0.04, the “ε, extinction coefficient” value ([8]; 5% FBS) was 130000 mol/L/cm and the “emmax, maximum emission wavelength” value ([8]; 5% FBS, 1 μmol/L) was 849 nm. The “exmax, maximum excitation wavelength” value ([8]; 5% FBS, 1 μmol/L) was 823 nm, the “Φ, quantum yield” value ([8]; CHCl3) was 0.06 and the “ε, extinction coefficient” value ([8]; CHCl3) was 330000 mol/L/cm. The “emmax, maximum emission wavelength” value ([8]; CHCl3, 1 μmol/L) was 845 nm and the “exmax, maximum excitation wavelength” value ([8]; CHCl3, 1 μmol/L) was 823 nm.

In the case of CC1(C)C(/C=C/C=C/C=C/C=C2\N(CCCCS(=O)(=O)O)c3ccc4ccccc4c3C2(C)C)=[N+](CCCCS(=O)(=O)[O-])c2ccc3ccccc3c21 [ICG, indocyanine green], the “Clearance and tumor accumulation after i.v. administration” value [9] is given as “rapid clearance through the liver into feces with low accumulation in tumors”.
